Reference: patent publication US12571800B2, “Means and methods for treating angiogenesis-related diseases” (Heidelberg Biotech GmbH, priority 2011, dated 2026)
Residue numbers refer to the chain shown, from its start. Values belong to the molecule of their own block, whether it stands above or below them.

Experiments:
[1] = system: Fc-Endostatin-resistant LLC cells (Endo P4); assay: Fc-Endostatin-resistant LLC tumors, passage 5, IGF1R inhibitor; assay type: in vivo, C57B16 mice
Description: Previously generated passage four Fc-Endostatin-resistant LLC cells (Endo P4, as described in the following examples) were subcutaneously injected to C57B16 mice.

Wild type LLC tumors = assay: Wild type LLC lung cancer model, prevention trial; assay type: in vivo, C57B16 mice
Procedure: Wild type LLC tumors (10.000 cells) were implanted s.c. in C57B16 mice. Tumors were sham treated (PBS, control), with the reference FN-mimetic-peptide (“FN-Motif”) containing only the “[…]” sequence (SEQ ID NO: 8) or with murine Superstatin (SEQ ID NO: 7) at the dose of 50 μg peptide in 100 μl PBS every 12 h s.c. (n: 5 in each group). Treatment was started 4 days after tumor implantation (“prevention trial”) and continued for 24 days. […] Tumor size reaching 1000 mm^2 was considered as death event in the Kaplan-Meier analysis.
Tumors were sham treated (PBS), with the reference FN-mimetic-peptide containing only the “[…]” sequence (SEQ ID NO: 8; FN motif) or with murine Superstatin (SEQ ID NO: 7) at the dose of 50 μg peptide in 100 μl PBS every 12 h s.c. (n: 5 in each group). Treatment was started 4 days after tumor implantation (“prevention trial”) and continued for 24 days. […] Tumor size reaching 1000 mm^2 was considered as death event in the Kaplan-Meier analysis.

LLC FN −/− tumor cells = assay: Fibronectin knockdown LLC tumor model; assay type: in vivo, C57B16 mice; details: treatment started day 4 post implantation; p<0.01 vs control or Fc-Endostatin
Description: In contrast, the Superstatin peptide (SEQ ID NO: 7) exerts potent tumor growth inhibition in FN −/− LLC tumors growing s.c. in C57B16 mice.
Once the efficacy of the Superstatin peptide (SEQ ID NO: 7) was confirmed, the inventors moved toward the second strategy to validate the proposed concept that FN signaling is critical for oligomeric NC-1 to exert their anti-angiogenic and anti-tumoral effects. […] LLC FN −/− tumor cells (100.000) were implanted in C57B16 mice and treatment with dimeric murine Fc-Endostatin vs. Superstatin was started on day 4 post implantation. Knockdown of FN rendered LLC tumors resistant to oligomeric NC-1 (Fc-Endostatin).

fibronectin [2] = target: T1, fibronectin (Homo sapiens, UniProt P02751); assay: Biacore (SPR) equilibrium binding constants to fibronectin; details: fibronectin 0.78 nM-100 nM over immobilized protein; values only in FIG. 1C
T1 sequence (P02751 32-2477): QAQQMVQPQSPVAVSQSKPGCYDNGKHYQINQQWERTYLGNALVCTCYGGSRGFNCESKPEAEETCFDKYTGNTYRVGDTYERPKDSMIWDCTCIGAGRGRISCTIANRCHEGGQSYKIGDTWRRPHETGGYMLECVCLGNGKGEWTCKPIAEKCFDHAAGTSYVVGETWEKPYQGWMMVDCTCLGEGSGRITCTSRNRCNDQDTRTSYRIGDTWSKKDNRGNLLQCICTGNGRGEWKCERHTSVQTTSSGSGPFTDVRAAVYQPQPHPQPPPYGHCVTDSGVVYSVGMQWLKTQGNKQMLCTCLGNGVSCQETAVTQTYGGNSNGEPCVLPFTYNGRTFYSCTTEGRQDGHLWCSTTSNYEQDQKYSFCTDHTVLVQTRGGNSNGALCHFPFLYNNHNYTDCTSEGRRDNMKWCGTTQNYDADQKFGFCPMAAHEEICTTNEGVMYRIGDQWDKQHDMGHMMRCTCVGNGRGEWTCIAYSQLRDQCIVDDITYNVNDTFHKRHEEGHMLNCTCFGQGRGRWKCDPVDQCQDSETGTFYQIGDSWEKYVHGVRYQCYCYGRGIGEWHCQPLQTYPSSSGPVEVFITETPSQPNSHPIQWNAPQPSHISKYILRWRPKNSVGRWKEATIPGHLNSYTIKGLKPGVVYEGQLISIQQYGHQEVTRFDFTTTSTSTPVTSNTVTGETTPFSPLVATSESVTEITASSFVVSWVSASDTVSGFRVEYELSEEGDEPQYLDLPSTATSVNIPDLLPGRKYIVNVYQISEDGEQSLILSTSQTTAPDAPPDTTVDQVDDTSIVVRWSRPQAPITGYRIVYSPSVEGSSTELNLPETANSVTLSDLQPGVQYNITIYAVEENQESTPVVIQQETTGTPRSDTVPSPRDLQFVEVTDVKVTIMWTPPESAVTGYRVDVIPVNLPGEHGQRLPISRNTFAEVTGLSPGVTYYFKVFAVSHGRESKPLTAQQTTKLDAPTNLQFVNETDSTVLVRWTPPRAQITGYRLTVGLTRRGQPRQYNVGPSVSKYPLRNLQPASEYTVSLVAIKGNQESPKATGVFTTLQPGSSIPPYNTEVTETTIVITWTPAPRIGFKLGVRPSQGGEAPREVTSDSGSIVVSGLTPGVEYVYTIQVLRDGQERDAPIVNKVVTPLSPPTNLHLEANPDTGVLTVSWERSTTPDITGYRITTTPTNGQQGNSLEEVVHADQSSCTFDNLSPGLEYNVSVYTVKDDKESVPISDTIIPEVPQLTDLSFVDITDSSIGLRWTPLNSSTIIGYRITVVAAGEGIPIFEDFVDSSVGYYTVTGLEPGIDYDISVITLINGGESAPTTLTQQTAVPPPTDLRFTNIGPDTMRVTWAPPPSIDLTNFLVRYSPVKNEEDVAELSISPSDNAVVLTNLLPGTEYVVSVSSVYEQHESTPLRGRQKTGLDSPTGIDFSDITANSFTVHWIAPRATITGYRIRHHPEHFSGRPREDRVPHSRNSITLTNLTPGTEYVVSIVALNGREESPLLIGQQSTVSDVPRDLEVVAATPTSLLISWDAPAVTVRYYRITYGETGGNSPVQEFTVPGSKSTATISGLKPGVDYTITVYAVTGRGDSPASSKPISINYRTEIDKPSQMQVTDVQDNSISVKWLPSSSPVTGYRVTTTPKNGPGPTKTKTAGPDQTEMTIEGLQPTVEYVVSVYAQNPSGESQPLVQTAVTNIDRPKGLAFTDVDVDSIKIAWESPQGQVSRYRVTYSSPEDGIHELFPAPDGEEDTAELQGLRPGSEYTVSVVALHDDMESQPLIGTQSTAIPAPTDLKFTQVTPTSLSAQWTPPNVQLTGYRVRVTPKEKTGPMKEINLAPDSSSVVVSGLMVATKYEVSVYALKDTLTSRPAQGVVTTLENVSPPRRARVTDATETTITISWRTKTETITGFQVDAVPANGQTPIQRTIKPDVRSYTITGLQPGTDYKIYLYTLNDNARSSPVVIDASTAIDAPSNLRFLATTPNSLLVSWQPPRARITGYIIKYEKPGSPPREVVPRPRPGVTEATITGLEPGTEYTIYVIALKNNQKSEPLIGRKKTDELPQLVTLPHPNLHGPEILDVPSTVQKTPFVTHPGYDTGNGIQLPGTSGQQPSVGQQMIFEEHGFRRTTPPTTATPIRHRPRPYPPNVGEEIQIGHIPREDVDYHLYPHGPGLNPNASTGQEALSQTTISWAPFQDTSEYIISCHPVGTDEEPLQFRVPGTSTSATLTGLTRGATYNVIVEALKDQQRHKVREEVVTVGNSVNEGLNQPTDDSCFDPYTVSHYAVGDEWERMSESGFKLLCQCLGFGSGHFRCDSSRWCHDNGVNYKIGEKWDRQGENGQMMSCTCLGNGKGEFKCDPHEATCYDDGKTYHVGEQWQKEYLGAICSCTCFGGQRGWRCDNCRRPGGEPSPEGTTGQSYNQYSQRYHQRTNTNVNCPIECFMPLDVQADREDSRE
Procedure: Fibronectin samples were prepared by serial dilution into 0.01 M Hepes, pH 7.4, 0.15 M NaCl, 0.05% Surfactant containing 1 mg/ml BSA in the range 0.78 nM-100 nM and flowed over control and derivatized surfaces for three minutes at a flow-rate of 60 μl/min. Dissociation phases were monitored for 5 minutes. Zero concentration blank buffer cycles were included as negative control samples. Sensor surfaces were regenerated using a 1 minute injection of 1 M ethanolamine, pH 8.5 following each interaction analysis cycle. Non-specific binding effects to sensor surface CM4 were not observed. Calculated ka, kd and KD are shown. Different curves correspond to different concentrations of fibronectin.
1.3 Surface Plasmon Resonance (SPR) binding assays. This analysis provides for a unique method for measuring equilibrium constants between two binding partners. It is able to evaluate the kinetics of an interaction by recording the rates of complex formation (ka) and dissociation (kd) followed by employing a software which determines the values of these two parameters. Equilibrium constant (KD) is obtained by calculating the ration of kd/ka Human VEGF (R&D), endostatin, endostatin dimer and human NC-1 (hNC-1) were diluted to 50 μg/ml in 10 mM Sodium Acetate, pH 5.5 and immobilized onto series S sensor chip(s) CM4 via a standard N-ethyl-N′-(dimethyl-aminopropyl)carbodiimide/N-hydroxysuccinimide (EDC/NHS) amine coupling procedures. Control surfaces were prepared similarly without protein derivatization and utilized as a reference surface for compound binding experiments.
Binding measurements were performed using a Biacore™ (GE Healthcare, Uppsala, Sweden) instrument which employs surface plasmon resonance to detect and monitor molecular interactions.
Data analysis was carried out using Biacore T100 evaluation software v1.1.1. Data were prepared by subtraction of reference surface data and blank buffer sample data, a procedure commonly referred to as ‘double referencing’ and fitted to a 1:1 langmuir binding model.
In order to measure equilibrium binding constants for the above proteins, a Biacore system was employed. […] Fc-endostatin imposes a dimeric structure on the two molecules of endostatin at the C-terminus of Fc dimer.

fibronectin [3] = target: T1, fibronectin; assay: Elisa, binding to fibronectin; details: proteins coated at 10 μg/ml; fibronectin as ligand at the same concentration
Procedure: Coating of proteins were done in PBS at concentration of 10 μg/ml. Fibronectin served as a ligand at the same concentration. All buffers contained 2% BSA, 0.1% Tween-20.
Three protein constructs human Fc (control), dimeric human (h)Fc-Endostatin and hFc-VEGF were employed. […] Artificial endostatin dimer was generated by introducing a single mutation in amino acid position 7 of endostatin (changing glutamine to cysteine) in the recombinant Fc-endostatin. Upon digestion of this mutant protein by enterokinase, endostatin dimer is produced, linked by a disulfide bond (Kuo et al., loc. cit.).

VEGF = target: T2, VEGF (Homo sapiens, UniProt P15692); assay: Competition with VEGF-ED-dimer (Fc-Endostatin) binding; details: preliminary data
T2 sequence (P15692 207-395 limits assumed): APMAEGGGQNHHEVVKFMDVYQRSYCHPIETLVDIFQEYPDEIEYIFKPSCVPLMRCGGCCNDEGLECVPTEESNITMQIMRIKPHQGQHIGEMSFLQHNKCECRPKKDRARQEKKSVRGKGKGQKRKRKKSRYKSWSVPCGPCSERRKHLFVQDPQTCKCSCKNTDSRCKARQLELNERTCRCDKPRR
Description: The first approach was to engineer a minimal peptide sequence that would mimic the key effects of the ED-FN complex. […] Preliminary data by the present inventors indicate that this region itself may be capable of binding to VEGF and that the two histidines (Zinc binding domain) in this peptide sequence may be critical for VEGF binding. […] On the other hand, fibronectin contains two active motifs that are critical for its binding to ITGA5B1, i.e. a PHSRN-(SEQ ID NO:20) and a RGD-dependent motif.

α5β1 = α5β1 (Homo sapiens, UniProt P05556+P08648); assay: Direct binding to integrin α5β1 (Elisa, immunoprecipitation, cell adhesion); details: immunoprecipitation and cell adhesion assays
Chain of α5β1 (P08648 42-894 limits assumed): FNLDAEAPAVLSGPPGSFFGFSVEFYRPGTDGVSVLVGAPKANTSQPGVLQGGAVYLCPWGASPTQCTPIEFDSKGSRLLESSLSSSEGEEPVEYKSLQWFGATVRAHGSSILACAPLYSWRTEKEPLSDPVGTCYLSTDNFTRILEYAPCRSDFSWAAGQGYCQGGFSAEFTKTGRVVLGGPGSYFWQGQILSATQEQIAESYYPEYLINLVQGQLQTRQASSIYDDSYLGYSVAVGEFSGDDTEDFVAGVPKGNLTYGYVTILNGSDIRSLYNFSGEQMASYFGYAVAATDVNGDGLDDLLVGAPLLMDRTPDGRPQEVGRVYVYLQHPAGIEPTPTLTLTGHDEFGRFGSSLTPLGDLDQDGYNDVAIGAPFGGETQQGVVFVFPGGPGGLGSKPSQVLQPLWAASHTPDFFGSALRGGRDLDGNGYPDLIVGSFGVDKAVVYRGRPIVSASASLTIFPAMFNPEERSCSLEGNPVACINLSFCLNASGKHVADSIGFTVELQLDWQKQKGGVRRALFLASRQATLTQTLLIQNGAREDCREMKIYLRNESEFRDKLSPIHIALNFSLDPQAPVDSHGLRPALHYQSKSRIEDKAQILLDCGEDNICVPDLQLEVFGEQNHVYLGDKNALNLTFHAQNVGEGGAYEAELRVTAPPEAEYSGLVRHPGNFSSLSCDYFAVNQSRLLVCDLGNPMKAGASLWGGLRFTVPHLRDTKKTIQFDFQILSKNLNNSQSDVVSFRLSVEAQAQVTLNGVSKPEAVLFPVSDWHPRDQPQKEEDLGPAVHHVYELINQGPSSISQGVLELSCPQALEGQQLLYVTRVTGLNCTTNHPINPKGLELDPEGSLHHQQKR
Chain of α5β1 (P08648 895-1049 limits assumed): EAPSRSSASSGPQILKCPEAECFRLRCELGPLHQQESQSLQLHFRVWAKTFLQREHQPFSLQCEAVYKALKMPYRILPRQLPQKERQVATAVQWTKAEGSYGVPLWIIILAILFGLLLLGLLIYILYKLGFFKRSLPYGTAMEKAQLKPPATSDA
Chain of α5β1 (P05556 21-798): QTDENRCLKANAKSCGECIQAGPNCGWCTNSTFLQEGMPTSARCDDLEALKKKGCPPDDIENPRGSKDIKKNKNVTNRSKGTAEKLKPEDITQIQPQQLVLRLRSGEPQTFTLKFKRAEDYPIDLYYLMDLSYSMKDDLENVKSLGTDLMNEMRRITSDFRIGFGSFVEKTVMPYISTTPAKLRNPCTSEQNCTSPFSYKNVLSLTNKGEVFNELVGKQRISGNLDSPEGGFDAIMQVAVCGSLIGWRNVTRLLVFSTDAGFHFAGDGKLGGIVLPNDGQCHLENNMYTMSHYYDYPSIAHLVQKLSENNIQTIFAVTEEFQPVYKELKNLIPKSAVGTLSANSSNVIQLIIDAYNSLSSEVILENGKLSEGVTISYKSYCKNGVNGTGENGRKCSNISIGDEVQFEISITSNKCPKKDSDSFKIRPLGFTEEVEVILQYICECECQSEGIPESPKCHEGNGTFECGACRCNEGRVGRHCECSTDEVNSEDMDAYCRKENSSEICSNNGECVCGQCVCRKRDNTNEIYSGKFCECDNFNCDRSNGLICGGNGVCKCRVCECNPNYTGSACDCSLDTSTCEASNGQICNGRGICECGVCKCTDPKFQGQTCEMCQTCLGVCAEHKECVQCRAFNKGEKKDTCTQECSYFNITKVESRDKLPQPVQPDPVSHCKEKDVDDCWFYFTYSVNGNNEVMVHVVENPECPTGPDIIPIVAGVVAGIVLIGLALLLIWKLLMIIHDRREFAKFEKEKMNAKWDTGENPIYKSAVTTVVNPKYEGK
Description: Endostatin binding to two integrins αvβ3 and α5β1 was first reported in 2001 (Rehn et al. 2001, PNAS 98, 1024). Presumably, such a binding inhibits interactions of fibronectin with these integrins. […] Endostatin lacks the sequence RGD. Consequently, such a binding must be mediated by other amino acids on endostatin.

[4] = system: human melanoma cancer cells (A2058); assay: A2058 human melanoma tumors in nude mice; assay type: in vivo; details: end of experiment; s.c. once a day; hNC-1 100 μg/mouse, endostatin 100 and 500 μg/mouse
Procedure: 4-6 tumor-bearing nude mice in each group were subcutaneously (s.c.) treated with hNC-1 (100 μg/mouse once a day), clinical-grade endostatin (100 and 500 μg/mouse once a day) or PBS. Treatment was stopped prior to the development of necrosis. Sites of injection were away from tumors. Tumor sizes and the ratio of treated/control (T/C) is shown.
1.4 Animal and tumor models. All animal procedures were carried out in compliance with Children's Hospital Boston guidelines Protocols were approved by the Institutional Animal Care and Use Committee. Eight-week-old male (24-27 g) nude/nude mice (Massachusetts General Hospital, Boston, MA) were used. Mice were acclimated, caged in groups of five in a barrier care facility, and fed animal chow and water ad libitum. Animals were euthanized by CO2 inhalation. Human melanoma cell line A2058 was used for animal studies. A suspension of 2×10^6 tumor cells in 0.1 ml of PBS was injected subcutaneously (s.c.) into the dorsa of mice at the proximal midline. Mice were weighed and tumors were monitored twice a week in two diameters with digital calipers. Tumor volumes were determined using a^2×b×0.52 (where a is the shortest and b is the longest diameter). Tumors were allowed to grow to ˜100 mm^3 and mice were randomized. Treatment was by bolus s.c. injections. After experiments were completed, tumors and organs were excised and fixed in either 4% paraformaldehyde or were snap frozen. Four to six mice were treated with each group.
2.6 hNC-1 suppresses tumor growth in vivo. In order to compare anti-tumor activities of NC-1 and endostatin, nude mice bearing human melanoma cell line A2058 were employed. Two doses of clinical grade endostatin differing by 5-fold in concentration of protein (low and high doses) were used. […] It cannot be ruled out the possibility that injected NC-1 becomes degraded upon entering the circulation.

[5] = in vivo; cited from earlier work
[6] = cited from earlier work
[7] = 50 μg peptide every 12 h s.c., day 4 on for 24 days

Molecule: COc1cc([C@@H]2c3cc4c(cc3[C@H](O)[C@H]3COC(=O)[C@@H]23)OCO4)cc(OC)c1OC [PPP, cyclolignan picropodophyllin]
- tumor growth, sequential IGF1R inhibition ([1]; 20 mg/kg IP, sequential to mFc-Endo): inhibited tumor growth
- tumor growth, concurrent administration ([1]; concurrent with mFc-Endo): only partially reversed the enhanced growth kinetic
- protein expression in passage 5 LLC tumors (Western blot) ([1]; mouse, in vivo): partially reversed this phenotype

Molecule: FN-Motif: LYAVTGRGDSPASSK (SEQ ID NO: 8; same sequence as SEQ ID NO: 11) (listed as Mus musculus) [reference compound]
- tumor growth (Wild type LLC tumors; [7]): no significant improvement in prevention of tumor growth

Molecule: Superstatin: HTHQDFQPVLHLVLYAVTGRGDSPASSK (SEQ ID NO: 7), NC1-ED Motif-FN-Motif hybrid (listed as Mus musculus)
- tumor growth in FN −/− LLC tumors (LLC FN −/− tumor cells): significantly inhibited tumor growth
- tumor growth (Wild type LLC tumors; [7]): potently inhibit tumor growth
- survival (Kaplan-Meier) as compared to control (Wild type LLC tumors; 50 μg peptide every 12 h s.c., day 4 on for 24 days, p<0.03 by log-rank test): significantly prolonged survival
- tumors growing during the treatment period (Wild type LLC tumors; n: 5 in each group): only a single tumor grew

- equilibrium binding constant to fibronectin (Biacore) (fibronectin [2]): High affinity constants
- binding to fibronectin (Elisa) (fibronectin [3]): bound fibronectin
Molecule: VEGF [reference compound]

- competition with VEGF-ED-dimer (Fc-Endostatin) binding (VEGF): failed to compete
Molecule: mP1-H1/3A: ATAQDFQPVLHLVALNTPLSGGMRGIR (SEQ ID NO: 19) (mP1-H1/3A)

- equilibrium binding constant to fibronectin (Biacore) (fibronectin [2]): No binding was detected
- direct binding to α5β1 (α5β1): without success
- binding to fibronectin (Elisa) (fibronectin [3]): did not
B1: endostatin: 183-amino acid proteolytic cleavage fragment corresponding to the C-terminus of collagen 18 (protein, UniProt P39060 1572-1754, looked up)
Endostatin: HSHRDFQPVLHLVALNSPLSGGMRGIRGADFQCFQQARAVGLAGTFRAFLSSRLQDLYSIVRRADRAAVPIVNLKDELLFPSWEALFSGSEGPLKPGARIFSFDGKDVLRHPTWPQKSVWHGSDPNGRRLTESYCETWRTEAPSATGQASSLLGGRLLGQSAASCHHAYIVLCIENSFMTASK
modifications: Endostatin
- inhibition of tumor growth [4]: 48%
- half-life in circulation [5]: very short
- anti-tumor activity in clinical trials ([6]; in vivo): did not demonstrate substantial endostatin anti-tumor activity
- safety in clinical trials ([6]; variety of dose schedules): very safe drug

- equilibrium binding constant to fibronectin (Biacore) (fibronectin [2]): High affinity constants
- binding to fibronectin (Elisa) (fibronectin [3]): bound fibronectin
B2: Endostatin dimer: disulfide-linked endostatin dimer, glutamine to cysteine at position 7, released from Fc-endostatin by enterokinase (protein, UniProt P39060 1572-1754, looked up, variant Q7C)
Endostatin: B1 Endostatin with Q7C
modifications: Endostatin disulfide-linked dimer
notes: disulfide-linked endostatin dimer, glutamine to cysteine at position 7, released from Fc-endostatin by enterokinase
